From patent publication US5068247A, “2-aminopentanoic acid compounds and their use as immunosuppressants” (priority 1989, dated 1991)
Converted amounts (≈) assume the structure as drawn.

What was measured:
[1] = tested on: mouse allogenic MLR (BALB/c mouse spleen cells stimulated with C57BL/6 mouse spleen cells); test: mouse allogenic mixed lymphocyte reaction (MLR), 3H-thymidine uptake; type: cell-based
Procedure: The immunosuppressive activity of the compounds was assayed on the basis of mouse allogenic mixed lymphocyte reaction (hereinafter sometimes abbreviated as MLR). Mouse allogenic MRL was carried out using a mixed culture of BALB/c mouse (H-2^d) spleen cells as the responder cells and mitomycin C-treated C57BL/6 ([…]) mouse spleen cells as the stimulator cells in equal amounts.
The responder cells were prepared as follows:
The spleen was resected from 5- to 6-week-old BALB/c mice, and single cell suspension of spleen cells was prepared by using the RPMI1640 culture medium (containing 60 μg/ml of kanamycin sulfate, 2 mM of L-glutamine, 10 mM of N-2-hydroxyethylpiperazine-N'-2-ethanesulphonate (HEPES) and 0.1% sodium hydrogencarbonate) to which heat-inactivated fetal calf serum (hereinafter sometimes abbreviated as FCS) had been added to 5%. After hemolytic treatment, the cell suspension was adjusted to a concentration of 10^7 cells/ml with the RPMI1640 culture medium supplemented with 10^-4 M 2-mercapto-ethanol and 20% FCS, and was used as the responder cell suspension.
The stimulator cells were prepared as follows: The spleen was resected from 5- to 6-week-old male C57BL/6 mice, and a single cell suspension of spleen cells was prepared by using the RPMI1640 culture medium. After hemolytic treatment, the cells were treated with 40 μg/ml of mitomycin C at 37° C. for 60 minutes. After washing three times, the cell suspension was adjusted to a concentration of 10^7 cells/ml with the RPMI1640 culture medium supplemented with 10^-4 M 2-mercapto-ethanol and 20% FCS, and was used as the stimulator cell suspension.
The blastogenesis of lymphocytes was assayed using ^3 H-thymidine uptake as an index. That is, after termination of culture, 18.5 KBq/well of ^3 H-thymidine was added thereto and the suspension was cultured for 4 hours. Cells were harvested by a cell-harvester, and the radioactivity incorporated into the cells was determined by a liquid scintillation counter, which was used as an index of blastogenesis of lymphocytes in the mouse allogenic MLR. The suppression of the mouse allogenic MLR was evaluated by calculating the percent suppression by the following formula.
The test substance dissolved in methanol was diluted with the RPMI1640 culture medium and put to use.

[2] = cytotoxicity to cultured tumor cell line HL60; conditions: human, hl60 cells, Suppression
Procedure: (§1) Cytotoxicity to various human tumor cell lines was examined as follows:
(§2) Cells of human cell lines, K562, MOLT4, U937 and HL60 were respectively suspended to the concentration of 4×10^5 cells/ml in the RPMI1640 culture medium supplemented with 20% FCS. Fifty μl of each suspension was added to each well of a 96-well microtest plate to which 50 μl of the test solution had been added. After culturing the suspension at 37° C. in an atmosphere of 5% carbon dioxide for 72 hours, the absorbancy at 570 nm was measured in the same way as with the colorimetry using MTT in Experiment Example 1, and the percent suppression was calculated by the following formula, which was used as an index of cytotoxicity.

HL60 = test: cytotoxicity to cultured tumor cell line HL60
Procedure: as §1, §2

U937 = test: cytotoxicity to cultured tumor cell line U937; type: cell-based, human
Procedure: as §1, §2

[3] = cytotoxicity to cultured tumor cell line U937; type: cell-based, human; conditions: human, u937 cells; 0.1 μg/ml; read-out: Suppression
Procedure: as §1, §2

MOLT4 = test: cytotoxicity to cultured tumor cell line MOLT4; type: cell-based, human
Procedure: as §1, §2

[4] = cytotoxicity to cultured tumor cell line MOLT4; type: cell-based, human; conditions: human, molt4 cells, read-out: Suppression
Procedure: as §1, §2

[5] = cytotoxicity to cultured tumor cell line K562; conditions: human, k562 cells, Suppression
Procedure: as §1, §2

K562 = test: cytotoxicity to cultured tumor cell line K562
Procedure: as §1, §2

IC50 ([1]; Mus musculus, Lymphocyte, read-out: 50%-inhibition concentration (IC50) in mouse allogenic MLR): 0.025 µg/mL (≈ 0.06 µM)
Structure (SMILES): CCCCCCC(CCCCCC/C=C/C[C@@H](O)[C@H](O)[C@@](N)(CO)C(=O)O)=NO [Example 4]
3H-thymidine uptake ([1]; 0.0001 μg/ml, Table 1A): 16905 cpm
3H-thymidine uptake ([1]; 0.001 μg/ml, Table 1A): 15970 cpm
3H-thymidine uptake ([1]; 0.01 μg/ml, Table 1A): 15399 cpm
3H-thymidine uptake ([1]; 0.1 μg/ml, Table 1A): 1637 cpm
3H-thymidine uptake ([1]; 1 μg/ml, Table 1A): 1477 cpm
inhibition at 0.0001 µg/mL ([1]; Mus musculus, Lymphocyte, 0.0001 μg/ml, Table 1A, read-out: Suppression): 9.1%
inhibition at 0.001 µg/mL ([1]; Mus musculus, Lymphocyte, 0.001 μg/ml, Table 1A, read-out: Suppression): 14.7%
inhibition at 0.01 µg/mL ([1]; Mus musculus, Lymphocyte, 0.01 μg/ml, Table 1A, read-out: Suppression): 18.1%
inhibition at 0.1 µg/mL ([1]; Mus musculus, Lymphocyte, 0.1 μg/ml, Table 1A, read-out: Suppression): 99.9%
inhibition at 1 µg/mL ([1]; Mus musculus, Lymphocyte, 1 μg/ml, Table 1A, read-out: Suppression): 100%
cytotoxicity at 72 h ([2]; 0.1 μg/ml): 6%
cytotoxicity at 72 h ([2]; 1 μg/ml): 0%
cytotoxicity at 72 h ([2]; 10 μg/ml): 8.2%
Absorbancy (HL60; 0.1 μg/ml): 1.401 ± 0.028
Absorbancy (HL60; 1 μg/ml): 1.493 ± 0.031
Absorbancy (HL60; 10 μg/ml): 1.368 ± 0.087
Absorbancy (U937; 0.1 μg/ml): 0.765 ± 0.033
Absorbancy (U937; 1 μg/ml): 0.744 ± 0.017
Absorbancy (U937; 10 μg/ml): 0.750 ± 0.048
cytotoxicity at 72 h [3]: 0%
Absorbancy (MOLT4; 0.1 μg/ml): 1.026 ± 0.026
Absorbancy (MOLT4; 1 μg/ml): 1.037 ± 0.027
Absorbancy (MOLT4; 10 μg/ml): 1.014 ± 0.055
cytotoxicity at 72 h ([4]; 0.1 μg/ml): 11%
cytotoxicity at 72 h ([4]; 1 μg/ml): 10.1%
cytotoxicity at 72 h ([4]; 10 μg/ml): 12.1%
cytotoxicity at 72 h ([5]; 0.1 μg/ml): 0%
cytotoxicity at 72 h ([5]; 1 μg/ml): 0.6%
cytotoxicity at 72 h ([5]; 10 μg/ml): 0%
Absorbancy (K562; 0.1 μg/ml): 1.145 ± 0.038
Absorbancy (K562; 1 μg/ml): 1.129 ± 0.021
Absorbancy (K562; 10 μg/ml): 1.148 ± 0.032
